Results on 18 compounds are retold here after PubChem BioAssay (NCI).

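Protocol summary: plate cells (96-well), add compound at 5 concentrations, incubate 48 h, interpolate endpoints linearly. TGI denotes the concentration required for complete inhibition of growth.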

Among the test systems are 786-0 renal; HOP-62 NSCLC; HT29 colon; IGROV1 ovarian; KM12 colon; MDA-N; PC-3 prostate; SF-268 CNS; SF-539 CNS; SK-OV-3 ovarian; SR leukemia.
Holding throughout (experiment): NCI tumour cell line growth inhibition, 48 h

Turning to `COP(=O)(OC)c1ccc(NCc2cc(O)ccc2O)cc1`, the TGI in the assay on 786-0 renal is 58.1 µM; with HOP-62 NSCLC, above 84.7 µM; in the assay with HT29 colon it was 56.3 µM; with IGROV1 ovarian, above 67.1 µM; in the assay on KM12 colon it was 38.4 µM; with MDA-N, above 63.2 µM. The TGI was above 100 µM in the assay on PC-3 prostate; 43.6 µM in the assay on SF-268 CNS; 46.1 µM with SF-539 CNS; above 100 µM with SK-OV-3 ovarian; above 83.4 µM in the assay with SR leukemia.

Take `CSC1(SC)N2Cc3ccccc3N=C2C1(c1ccccc1)c1ccccc1`: the TGI in the assay with 786-0 renal is above 100 µM; in the assay with HOP-62 NSCLC it was above 100 µM; with HT29 colon it was above 100 µM; in the assay on IGROV1 ovarian, above 100 µM; with KM12 colon it was above 35.6 µM; in the assay with MDA-N it was above 96.7 µM. The TGI in the assay on PC-3 prostate is above 100 µM; in the assay with SF-268 CNS it was above 100 µM; in the assay on SF-539 CNS, 31.6 µM; with SK-OV-3 ovarian, above 100 µM; in the assay on SR leukemia, 9.36 µM.

With `COC(=O)c1c(O)ccc2c1c1c(n2Cc2ccccn2)C(=O)c2ccccc2C1=O`, the TGI in the assay on 786-0 renal was above 100 µM; in the assay on HOP-62 NSCLC, 77.7 µM; with HT29 colon, 17.4 µM; with IGROV1 ovarian, above 100 µM; in the assay with KM12 colon, above 100 µM; with MDA-N it was above 100 µM. The TGI in the assay with PC-3 prostate was above 100 µM; in the assay on SF-268 CNS, above 100 µM; in the assay on SF-539 CNS, 42.9 µM; with SK-OV-3 ovarian, 61.1 µM; in the assay with SR leukemia, 64.2 µM.

Take `O=c1oc2c/c(=C\c3ccccc3)c(=O)c3cccc1c3-2`: the TGI is 53.9 µM with 786-0 renal; 44.1 µM with HOP-62 NSCLC; above 100 µM in the assay on HT29 colon; 56.7 µM in the assay with IGROV1 ovarian; 56.3 µM in the assay on KM12 colon; 46.1 µM in the assay on MDA-N. Also, the TGI in the assay with PC-3 prostate is above 100 µM; in the assay with SF-268 CNS, 58.7 µM; in the assay with SF-539 CNS, 67.1 µM; in the assay on SK-OV-3 ovarian, above 100 µM; in the assay on SR leukemia, above 100 µM.

As to `CCCCC1(N=[N+]=[N-])C(=O)C2C=CC=C3c4ccccc4N(C1=O)C32` (stereo not drawn), the TGI in the assay with 786-0 renal is above 31.6 µM; with HOP-62 NSCLC, above 31.6 µM; in the assay on HT29 colon, 25.8 µM; in the assay with IGROV1 ovarian, above 31.6 µM; with KM12 colon, above 31.6 µM; in the assay with MDA-N, above 31.6 µM. Moreover, the TGI in the assay on PC-3 prostate was above 31.6 µM; with SF-268 CNS, above 31.6 µM; in the assay with SF-539 CNS, above 31.6 µM; in the assay with SK-OV-3 ovarian, above 31.6 µM; in the assay with SR leukemia, above 10 µM.

As to `NC(=O)c1ncn2c(=O)n(CCl)nnc12`, the TGI in the assay on 786-0 renal, in the assay with HOP-62 NSCLC, in the assay with HT29 colon, in the assay with IGROV1 ovarian, in the assay on KM12 colon and in the assay with MDA-N was above 100 µM each time. Besides, the TGI in the assay on PC-3 prostate, in the assay on SF-268 CNS, in the assay on SF-539 CNS, in the assay on SK-OV-3 ovarian and with SR leukemia was above 100 µM throughout.

Turning to `Cc1[nH]c(=O)nc2nc3ccc(Cl)cc3c(NC(C)(CO)CO)c12`, the TGI is above 100 µM in the assay on 786-0 renal; 61.3 µM in the assay on HOP-62 NSCLC; above 100 µM in the assay on HT29 colon; above 100 µM in the assay with IGROV1 ovarian; above 100 µM with KM12 colon; above 100 µM in the assay on MDA-N. Moreover, the TGI in the assay on PC-3 prostate, in the assay with SF-268 CNS, in the assay with SF-539 CNS, in the assay with SK-OV-3 ovarian and in the assay with SR leukemia was above 100 µM throughout.

`COc1ccc2c(c1)CC1(O)COc3cc(OC)ccc3C1O2` (stereo not drawn): the TGI with 786-0 renal, in the assay on HOP-62 NSCLC, with HT29 colon, in the assay on IGROV1 ovarian, in the assay with KM12 colon and with MDA-N was above 100 µM in each case. In addition, the TGI in the assay on PC-3 prostate, in the assay on SF-268 CNS, with SF-539 CNS, in the assay with SK-OV-3 ovarian and in the assay on SR leukemia was above 100 µM each time.

For the compound `Cc1nc2c(Cl)cc(Cl)cc2c(Cl)c1CCCl`, the TGI in the assay on 786-0 renal, with HOP-62 NSCLC, in the assay on HT29 colon, in the assay with IGROV1 ovarian, in the assay with KM12 colon and in the assay on MDA-N was above 100 µM in each case. The TGI in the assay on PC-3 prostate, with SF-268 CNS, with SF-539 CNS, in the assay with SK-OV-3 ovarian and with SR leukemia was above 100 µM in each case.

Regarding `NNC(=O)CCC(NS(=O)(=O)c1ccc(Cl)cc1)C(=O)NN` (stereo not drawn), the TGI with 786-0 renal, in the assay with HOP-62 NSCLC, in the assay on HT29 colon, in the assay with IGROV1 ovarian, in the assay with KM12 colon and in the assay with MDA-N was above 100 µM each time. Besides, the TGI in the assay on PC-3 prostate, in the assay with SF-268 CNS, with SF-539 CNS, in the assay with SK-OV-3 ovarian and in the assay with SR leukemia was above 100 µM each time.

Take `CCOC(=O)c1cn(CC)c2cc3c(cc2c1=O)CCS3(=O)=O`: the TGI in the assay with 786-0 renal, with HOP-62 NSCLC, in the assay with HT29 colon, in the assay with IGROV1 ovarian, in the assay with KM12 colon and in the assay with MDA-N was above 100 µM each time. Further, the TGI with PC-3 prostate, with SF-268 CNS, in the assay with SF-539 CNS, in the assay on SK-OV-3 ovarian and in the assay with SR leukemia was above 100 µM in each case.

`COc1ccc(-c2nnc(CCCCCCCCc3nnc(-c4ccc(OC)cc4)n3N)n2N)cc1`: the TGI with 786-0 renal is above 31.6 µM; in the assay with HOP-62 NSCLC, 65.8 µM; in the assay with HT29 colon, above 100 µM; in the assay with IGROV1 ovarian, above 100 µM; in the assay on KM12 colon, above 100 µM; with MDA-N it was above 100 µM. In addition, the TGI in the assay with PC-3 prostate, in the assay with SF-268 CNS, in the assay on SF-539 CNS, in the assay on SK-OV-3 ovarian and in the assay on SR leukemia was above 100 µM in each case.

On to `S=c1nc2sc3c(c2c(Nc2ccc(Br)cc2)[nH]1)CCN(N1CCc2c(sc4nc(=S)[nH]c(Nc5ccc(Br)cc5)c24)C1)C3`, for which the TGI in the assay with 786-0 renal is 15.5 µM; in the assay with HOP-62 NSCLC it was above 50 µM; with HT29 colon, above 50 µM; in the assay with IGROV1 ovarian, above 50 µM; with KM12 colon, above 50 µM; with MDA-N, 44.2 µM. In addition, the TGI in the assay with PC-3 prostate, in the assay on SF-268 CNS, in the assay on SF-539 CNS, in the assay with SK-OV-3 ovarian and with SR leukemia was above 50 µM throughout.

Consider `CC(C)(C)OC(=O)N1Cc2cc(O)ccc2C[C@H]1C(=O)O`, for which the TGI in the assay with 786-0 renal, with HOP-62 NSCLC, in the assay on HT29 colon, in the assay on IGROV1 ovarian, in the assay with KM12 colon and with MDA-N was above 100 µM in each case. Also, the TGI in the assay with PC-3 prostate, with SF-268 CNS, in the assay on SF-539 CNS, with SK-OV-3 ovarian and with SR leukemia was above 100 µM each time.

For `COC12OC3CC4(C)C(=CC3OC(OC(C)C1O)C2O)CCC1C4CCC2(C)C(c3ccc(=O)oc3)CCC12O` (stereo not drawn), the TGI in the assay with 786-0 renal worked out at 0.00195 µM; in the assay with HOP-62 NSCLC it was 0.00311 µM; in the assay on HT29 colon, 0.00277 µM; in the assay on IGROV1 ovarian, 0.00389 µM; in the assay with KM12 colon, 0.00739 µM; in the assay with MDA-N, 0.00434 µM. In addition, the TGI amounted to 0.00214 µM with PC-3 prostate; 0.00157 µM with SF-268 CNS; 0.00167 µM in the assay on SF-539 CNS; 0.272 µM in the assay on SK-OV-3 ovarian; 0.00291 µM in the assay on SR leukemia.

On to `NC(=O)C[C@H](NC(=O)C1(NC(=O)[C@H](Cc2ccc(CP(=O)(O)O)cc2)NC(=O)C(=O)O)CCCCC1)C(=O)NCCCc1cccc2ccccc12`, for which the TGI in the assay with 786-0 renal, in the assay with HOP-62 NSCLC, in the assay with HT29 colon, with IGROV1 ovarian, with KM12 colon and in the assay with MDA-N was above 10 µM throughout. The TGI was above 10 µM with PC-3 prostate; above 10 µM in the assay with SF-268 CNS; above 10 µM with SF-539 CNS; above 10 µM in the assay on SK-OV-3 ovarian; 7.86 µM in the assay on SR leukemia.

Consider `Clc1ccc2nc(CC3CCCC3)[nH]c2c1`, for which the TGI worked out at 33.4 µM in the assay on 786-0 renal; 32.7 µM with HOP-62 NSCLC; 33.5 µM with HT29 colon; 19 µM with IGROV1 ovarian; 38.8 µM with KM12 colon; 38.5 µM in the assay on MDA-N. The TGI in the assay on PC-3 prostate worked out at 71 µM; in the assay on SF-268 CNS it was 40.2 µM; in the assay on SF-539 CNS, 51.7 µM; in the assay on SK-OV-3 ovarian, 49.1 µM; in the assay with SR leukemia it was 26.5 µM.

Turning to `Cn1c(N=[N+]=[N-])cc(=O)n(C)c1=O`, the TGI in the assay with 786-0 renal, in the assay on HOP-62 NSCLC, with HT29 colon, with IGROV1 ovarian, with KM12 colon and in the assay on MDA-N was above 100 µM throughout. In addition, the TGI in the assay on PC-3 prostate, with SF-268 CNS, with SF-539 CNS, in the assay with SK-OV-3 ovarian and in the assay with SR leukemia was above 100 µM throughout.
